The record followed here is US11306092B2, “Amino indole compounds useful as TLR inhibitors” (BRISTOL-MYERS SQUIBB COMPANY, priority 2017, dated 2022).

One experiment has as its target T1, human TLR9 (Homo sapiens, UniProt Q9NR96).
T1 construct: host or cells: HEK-Blue cells
T1 sequence (Q9NR96 26-1032): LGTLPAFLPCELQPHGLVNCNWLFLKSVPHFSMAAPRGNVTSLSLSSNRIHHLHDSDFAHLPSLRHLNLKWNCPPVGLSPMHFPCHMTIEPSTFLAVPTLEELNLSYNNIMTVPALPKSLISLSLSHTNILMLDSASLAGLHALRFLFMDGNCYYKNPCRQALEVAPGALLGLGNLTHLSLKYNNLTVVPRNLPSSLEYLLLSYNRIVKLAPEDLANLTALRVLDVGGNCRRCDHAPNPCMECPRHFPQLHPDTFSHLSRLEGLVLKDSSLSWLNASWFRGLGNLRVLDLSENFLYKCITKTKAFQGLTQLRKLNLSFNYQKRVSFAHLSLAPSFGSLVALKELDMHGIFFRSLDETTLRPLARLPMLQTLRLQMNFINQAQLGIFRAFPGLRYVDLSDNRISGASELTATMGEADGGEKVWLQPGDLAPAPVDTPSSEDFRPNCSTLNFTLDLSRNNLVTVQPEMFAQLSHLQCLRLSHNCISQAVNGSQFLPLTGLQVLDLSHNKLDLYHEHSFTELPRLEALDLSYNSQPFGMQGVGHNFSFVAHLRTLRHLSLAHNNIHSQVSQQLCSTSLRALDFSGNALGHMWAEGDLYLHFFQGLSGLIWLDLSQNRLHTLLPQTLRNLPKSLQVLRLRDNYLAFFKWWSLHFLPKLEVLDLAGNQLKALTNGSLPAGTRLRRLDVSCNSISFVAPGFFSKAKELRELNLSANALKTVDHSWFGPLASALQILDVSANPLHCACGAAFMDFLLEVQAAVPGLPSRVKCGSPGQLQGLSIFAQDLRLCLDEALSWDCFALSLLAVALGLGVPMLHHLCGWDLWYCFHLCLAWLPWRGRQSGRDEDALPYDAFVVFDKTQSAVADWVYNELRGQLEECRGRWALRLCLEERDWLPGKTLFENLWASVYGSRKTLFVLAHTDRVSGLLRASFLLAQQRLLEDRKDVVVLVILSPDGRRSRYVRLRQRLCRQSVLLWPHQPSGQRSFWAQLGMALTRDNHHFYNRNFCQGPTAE
In words: TLR9 inhibition reporter assay (HEK-Blue SEAP reporter). Particulars: HEK-Blue cells overexpressing human TLR9; ODN2006 5 nM; 22 hour incubation. Format: cell-based. Here is the method: (§1) TLR7/8/9 Inhibition Reporter Assays
(§2) HEK-Blue™-cells (Invivogen) overexpressing human TLR7, TLR8 or TLR9 receptors were used for screening inhibitors of these receptors using an inducible SEAP (secreted embryonic alkaline phosphatase) reporter gene under the control of the IFN-β minimal promoter fused to five NF-κB and AP-1-binding sites. Briefly, cells are seeded into Greiner 384 well plates (15000 cells per well for TLR7, 20,000 for TLR8 and 25,000 for TLR9) and then treated with test compounds in DMSO to yield a final dose response concentration range of 0.05 nM-50 μM. After a 30 minute compound pre-treatment at room temperature, the cells are then stimulated with a TLR7 ligand (gardiquimod at a final concentration of 7.5 μM), TLR8 ligand (R848 at a final concentration of 15.9 μM) or TLR9 ligand (ODN2006 at a final concentration of 5 nM) to activate NF-κB and AP-1 which induce the production of SEAP. After a 22 hour incubation at 37° C., 5% CO2, SEAP levels are determined with the addition of HEK-Blue™ Detection reagent (Invivogen), a cell culture medium that allows for detection of SEAP, according to manufacturer's specifications. The percent inhibition is determined as the % reduction in the HEK-Blue signal present in wells treated with agonist plus DMSO alone compared to wells treated with a known inhibitor.
Background: In a reporter assay the amount or activity of a reporter protein is the signal.

Another experiment addresses T2, human TLR7 (Homo sapiens, UniProt Q9NYK1).
T2 construct: host or cells: HEK-Blue cells
T2 sequence (Q9NYK1 27-1049): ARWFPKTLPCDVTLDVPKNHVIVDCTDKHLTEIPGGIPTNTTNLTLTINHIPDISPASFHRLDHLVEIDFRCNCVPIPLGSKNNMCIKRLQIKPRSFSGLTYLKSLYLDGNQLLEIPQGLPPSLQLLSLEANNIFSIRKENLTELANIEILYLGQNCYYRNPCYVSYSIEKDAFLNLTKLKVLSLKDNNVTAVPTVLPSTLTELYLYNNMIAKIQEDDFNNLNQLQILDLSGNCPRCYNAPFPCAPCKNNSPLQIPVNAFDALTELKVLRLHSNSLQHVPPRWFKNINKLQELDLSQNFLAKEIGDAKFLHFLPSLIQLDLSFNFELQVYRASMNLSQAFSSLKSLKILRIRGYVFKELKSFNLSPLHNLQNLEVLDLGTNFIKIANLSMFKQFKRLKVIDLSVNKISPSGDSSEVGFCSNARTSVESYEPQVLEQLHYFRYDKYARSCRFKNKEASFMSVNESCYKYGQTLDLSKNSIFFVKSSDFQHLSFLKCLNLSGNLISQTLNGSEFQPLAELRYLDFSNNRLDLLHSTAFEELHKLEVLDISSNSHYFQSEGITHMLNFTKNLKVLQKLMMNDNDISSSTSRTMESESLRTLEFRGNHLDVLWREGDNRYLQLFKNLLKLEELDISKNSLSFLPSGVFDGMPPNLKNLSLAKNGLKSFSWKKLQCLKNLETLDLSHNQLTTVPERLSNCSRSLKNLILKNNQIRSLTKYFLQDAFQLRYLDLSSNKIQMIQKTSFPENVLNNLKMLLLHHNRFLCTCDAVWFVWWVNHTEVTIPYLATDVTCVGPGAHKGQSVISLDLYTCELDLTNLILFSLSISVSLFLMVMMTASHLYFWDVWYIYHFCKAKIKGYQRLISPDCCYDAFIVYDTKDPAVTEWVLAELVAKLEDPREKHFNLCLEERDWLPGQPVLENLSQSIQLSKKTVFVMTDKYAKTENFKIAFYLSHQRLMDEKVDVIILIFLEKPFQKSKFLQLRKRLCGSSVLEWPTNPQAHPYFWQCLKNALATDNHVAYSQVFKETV
Nature of the experiment: TLR7 inhibition reporter assay (HEK-Blue SEAP reporter). Format: cell-based. The following applies: HEK-Blue cells overexpressing human TLR7; gardiquimod 7.5 μM; 22 hour incubation. Here is the method:
as §1, §2

A word on the IC50: it is the concentration needed to halve the response being measured. Higher therefore signals a need for much substance. `CC(C)c1c(-c2ccnc3[nH]ncc23)[nH]c2ccc(N3CCN(C4CCN(C(C)C)CC4)CC3)cc12` [Example 167, 4-(3-isopropyl-5-(4-(1-isopropylpiperidin-4-yl)piperazin-1-yl)-1H-indol-2-yl)-1H-pyrazolo[3,4-b]pyridine]: the IC50 at human TLR9 was 0.411 µM; against human TLR7 it was 5.18 µM.

For the compound `COc1ccc(-c2[nH]c3ccc(NC4CCC(NCCCN5CCOCC5)CC4)cc3c2C(C)C)cc1OC` (stereo not shown) [Example 55, N1-(2-(3,4-dimethoxyphenyl)-3-isopropyl-1H-indol-5-yl)-N4-(3-morpholinopropyl)cyclohexane-1,4-diamine], the IC50 worked out at 0.631 µM on human TLR9 and 0.167 µM against human TLR7.

As to `COc1ccc(-c2[nH]c3ccc(N4CCC(N5CCN(CC6CC6)CC5)CC4)cc3c2C(C)C)cc1OC` [Example 87, 5-(4-(4-(cyclopropylmethyl)piperazin-1-yl)piperidin-1-yl)-2-(3,4-dimethoxyphenyl)-3-isopropyl-1H-indole], the figures for the IC50 against human TLR9 and at human TLR7 were 9.8 µM and 0.337 µM, respectively.

For `CCc1c(-c2ccc(OC)c(OC)c2)[nH]c2ccc(N3CCCN(CCNC)CC3)cc12` [Example 178, 2-(4-(2-(3,4-dimethoxyphenyl)-3-ethyl-1H-indol-5-yl)-1,4-diazepan-1-yl)-N-methylethan-1-amine], the IC50 against human TLR9 is 2.3 µM; against human TLR7, 1.04 µM.

`COc1ccc(-c2[nH]c3ccc(N4CCC(N5CCN(C(C)=O)CC5)CC4)cc3c2C(C)C)cc1OC` [Example 82, 1-(4-(1-(2-(3,4-dimethoxyphenyl)-3-isopropyl-1H-indol-5-yl)piperidin-4-yl)piperazin-1-yl)ethan-1-one]: the IC50 was determined as 6.56 µM at human TLR9 and 0.114 µM against human TLR7.

Consider `COc1ccc(-c2[nH]c3ccc(NC4CCC(NCCN(C)C)CC4)cc3c2C(C)C)cc1OC` (stereo not shown) [Example 33, N1-(2-(3,4-dimethoxyphenyl)-3-isopropyl-1H-indol-5-yl)-N4-(2-(dimethylamino)ethyl)cyclohexane-1,4-diamine], for which the IC50 was 0.65 µM at human TLR9 and 0.136 µM against human TLR7.

As for `CNCCNC1CCC(Nc2ccc3[nH]c(-c4ccc(OC)c(OC)c4)c(C(C)C)c3c2)CC1` (single isomer, unassigned) [Example 31, N1-(2-(3,4-dimethoxyphenyl)-3-isopropyl-1H-indol-5-yl)-N4-(2-(methylamino)ethyl)cyclohexane-1,4-diamine], the IC50 against human TLR9 came to 1.44 µM; on human TLR7, 1.13 µM.

`COc1ccc(-c2[nH]c3ccc(NC4CCC(N5CCN(C)CC5)CC4)cc3c2C(C)C)cc1OC` (stereo not shown) [Example 34, 2-(3,4-dimethoxyphenyl)-3-isopropyl-N-(4-(4-methylpiperazin-1-yl)cyclohexyl)-1H-indol-5-amine]: the IC50 on human TLR9 was found to be 0.769 µM; against human TLR7, 0.281 µM.

Turning to `COc1ccc(-c2[nH]c3ccc(NC4CCC(NCCCN5CCOCC5)CC4)cc3c2C(C)C)cc1OC` (stereo not shown) [Example 56, N1-(2-(3,4-dimethoxyphenyl)-3-isopropyl-1H-indol-5-yl)-N4-(3-morpholinopropyl)cyclohexane-1,4-diamine], the results for the IC50 against human TLR9 and at human TLR7 were 0.59 µM and 0.136 µM, respectively.

As for `COc1ccc(-c2[nH]c3ccc(NC4CCC(N5CCN(CC(C)C)CC5)CC4)cc3c2C(C)C)cc1OC` (stereo not shown) [Example 52, 2-(3,4-dimethoxyphenyl)-N-(4-(4-isobutylpiperazin-1-yl)cyclohexyl)-3-isopropyl-1H-indol-5-amine], the IC50 on human TLR9 was found to be 1.58 µM; against human TLR7, 0.403 µM.

Take `COc1ccc(-c2[nH]c3ccc(N4CCC(C5CCN(Cc6ccsc6)CC5)CC4)cc3c2C(C)C)cc1OC` [Example 98, 2-(3,4-dimethoxyphenyl)-3-isopropyl-5-(1′-(thiophen-3-ylmethyl)-[4, 4′-bipiperidin]-1-yl)-1H-indole]: the IC50 on human TLR9 was 1.52 µM; at human TLR7 it was 0.181 µM.

In the case of `CCc1c(-c2ccc(OC)c(OC)c2)[nH]c2ccc(N3CCCN(C4CCN(C)CC4)CC3)cc12` [Example 179, 2-(3,4-dimethoxyphenyl)-3-ethyl-5-(4-(1-methylpiperidin-4-yl)-1,4-diazepan-1-yl)-1H-indole], the values for the IC50 against human TLR9 and at human TLR7 were 1.1 µM and 0.831 µM, respectively.

Turning to `COc1ccc(-c2[nH]c3ccc(NC4CCC(N5CCN(C(C)=O)CC5)CC4)cc3c2C(C)C)cc1OC` (single isomer, unassigned) [Example 45, 1-(4-(4-((2-(3,4-dimethoxyphenyl)-3-isopropyl-1H-indol-5-yl)amino)cyclohexyl)piperazin-1-yl)ethan-1-one], the IC50 on human TLR9 is 1.27 µM; at human TLR7 it was 0.349 µM.

On to `COc1ccc(-c2[nH]c3ccc(NC4CCC(N5CCN(C(C)(C)C)CC5)CC4)cc3c2C(C)C)cc1OC` (stereo not shown) [Example 50, N-(4-(4-(tert-butyl)piperazin-1-yl)cyclohexyl)-2-(3,4-dimethoxyphenyl)-3-isopropyl-1H-indol-5-amine], for which the IC50 is 0.561 µM against human TLR9 and 0.431 µM against human TLR7.

With `COc1ccc(-c2[nH]c3ccc(NC4CCC(NC5CCN(C)CC5)CC4)cc3c2C(C)C)cc1OC` (single isomer, unassigned) [Example 41, N1-(2-(3,4-dimethoxyphenyl)-3-isopropyl-1H-indol-5-yl)-N4-(1-methylpiperidin-4-yl)cyclohexane-1,4-diamine], the IC50 against human TLR9 is 0.991 µM; against human TLR7, 0.221 µM.

Consider `COc1ccc(-c2[nH]c3ccc(N4CCC(N5CCN(CCN6CCCC6)CC5)CC4)cc3c2C(C)C)cc1OC` [Example 100, 2-(3,4-dimethoxyphenyl)-3-isopropyl-5-(4-(4-(2-(pyrrolidin-1-yl)ethyl)piperazin-1-yl)piperidin-1-yl)-1H-indole], for which the IC50 is 1.01 µM against human TLR9 and 0.102 µM on human TLR7.

Turning to `COc1ccc(-c2[nH]c3ccc(NC4CCC(N(C)CCCN(C)C)CC4)cc3c2C(C)C)cc1OC` (stereo not shown) [Example 42, N1-(2-(3,4-dimethoxyphenyl)-3-isopropyl-1H-indol-5-yl)-N4-(3-(dimethylamino)propyl)-N4-methylcyclohexane-1,4-diamine], the figures for the IC50 at human TLR9 and against human TLR7 were 1.01 µM and 0.106 µM, respectively.
